Measurements: patent publication US20110195845A1, “Constructs for Expressing Herbicide Tolerance Genes, Related Plants, and Related Trait Combinations” (Dow AgroSciences LLC, priority 2008, published 2011)

Tests used:
[1] = test system: Escherichia coli BL21-Star (DE3) with AtUbi10 promoter//PAT (3779); assay: Plant promoter driven complementation on glufosinate, plasmid 3779; assay type: cell-based; set-up: key: ++++ = Heavy Lawn Growth; +++ = Lawn Growth; ++ = Lots of Distinct Colonies; + = Scattered Colony Growth; details: 48 hrs @37 C
Protocol: Plasmid constructs in which the DSM-2 (v2) and PAT gene coding sequences were expressed, under either the viral promoters CsVMV or the plant promoter AtUbi10, were assayed for complementation on minimal media containing glufosinate. The plasmids 3778 (Rb7 MARv3//AtUbi10 promoter//DSM-2 (v2)//Atu Orf 1 3′UTR), 3779 (Rb7 MARv3//AtUbi10 promoter//PAT//Atu Orf 1 3′UTR), 3264 (CsVMV promoter//DSM-2//Atu Orf 24 3′UTR), 3037 (CsVMV promoter//PAT//Atu Orf 25/26 3′UTR), and 770 (control plasmid containing CsVMV promoter//GUS v3//Atu Orf 24 3′UTR) were transformed into Escherichia coli BL21-Star (DE3) and grown up in complex media. Five microliters of the cultures were plated on minimal media containing increasing concentrations of Glufosinate and incubated at 37° C. for 48 hours.

[2] = test system: PAT gene + AAD-12 transformed T1 Arabidopsis; assay: T1 Arabidopsis response to glufosinate applied postemergence; assay type: in vivo, Arabidopsis thaliana; details: 2 WAT
Protocol: Seven days after planting (DAP) and again 11 DAP, T1 plants (cotyledon and 2-4-1f stage, respectively) were sprayed with a 0.016% solution of 2,4-D herbicide (456 g ae/L 2,4-D Amine 4, Dow AgroSciences LLC, Indianapolis, Ind.) at a spray volume of 10 ml/tray (703 L/ha) using a DeVilbiss compressed air spray tip to deliver an effective rate of 50 g ae/ha 2,4-D DMA per application. Survivors (plants actively growing) were identified 4-7 days after the final spraying and transplanted individually into 3-inch pots prepared with potting media (Metro Mix 360). Transplanted plants were covered with humidity domes for 3-4 days and placed in a 22° C. growth chamber as before or moved to directly to the greenhouse. Domes were subsequently removed and plants reared in the greenhouse (22±5° C., 50±30% RH, 14 h light:10 dark, minimum 500 μE/m^2s^1 natural+supplemental light) at least 1 day prior to testing for the ability of DSM-2 (v2) to provide glufosinate herbicide resistance.
T1 plants were then randomly assigned to various rates of glufosinate. For Arabidopsis 140 g ai/ha glufosinate is an effective dose to distinguish sensitive plants from ones with meaningful levels of resistance. Elevated rates were also applied to determine relative levels of resistance (280, 560, or 1120 g ai/ha).
All glufosinate herbicide applications were applied by track sprayer in a 187 L/ha spray volume. The commercial Liberty™ formulation (200 g ai/L, Bayer Crop Science, Research Triangle Park, N.C.).
The first Arabidopsis transformations were conducted using DSM-2 (v2) (plant optimized gene). T1 transformants were first selected from the background of untransformed seed using a 2,4-D DMA selection scheme. Over 100,000 T1 seed were screened and 260 2,4-D resistant plants (AAD-12 gene) were identified, equating to a transformation/selection frequency of 0.26% which is slightly higher than the normal range of selection frequency of constructs where AAD-12+2,4-D are used for selection. T1 plants selected above were subsequently transplanted to individual pots and sprayed with various rates of commercial glufosinate herbicide. Table 10 compares the response of DSM-2 (v2) and control genes to impart glufosinate resistance to Arabidopsis T1 transformants. Response is presented in terms of % visual injury 2 WAT. […] Since each T1 is an independent transformation event, one can expect significant variation of individual T1 responses within a given rate. An arithmetic mean and standard deviation is presented for each treatment. Untransformed-wildtype Arabidopsis served as a glufosinate sensitive control. The DSM-2 (v2) gene imparted herbicide resistance to individual T1 Arabidopsis plants. Within a given treatment, the level of plant response varied greatly and can be attributed to the fact each plant represents an independent transformation event. Of important note, at above 140 g ai/ha glufosinate, there were individuals that were unaffected while some were severely affected.

[3] = test system: Escherichia coli BL21-Star (DE3) with empty pET vector; assay: Complementation of cell growth on glufosinate, empty pET vector (control); assay type: cell-based; set-up: key: +++ = Heavy Lawn Growth; ++ = Light lawn growth; + = patchy lawn growth; −− = No Growth; details: 24 hrs @28 C, 20 uM IPTG
Source text: A pET28a(+) expression plasmid containing PAT (v3) was constructed as a positive control. PAT (v3) was cloned as an NcoI-SacI fragment into corresponding restriction sites of pDAB779. Positive clones containing the PAT (v3) gene fragment were verified via restriction enzyme digestion. This construct was labeled as pDAB4434.
The plasmids, pDAB4434, pDAB4412, and an empty pET vector (control) were transformed into Escherichia coli BL21-Star (DE3) bacterial cells. Expression cultures were initiated with 10-200 freshly transformed colonies into 250 mL LB medium containing 50 μg/ml antibiotic and 75 μM IPTG (isopropyl-[…]). The cultures were grown at 28° C. for 24 hours at 180-200 rpm. Five microliters of the culture was inoculated onto a complex media control and minimal media containing incrementally increasing concentrations of glufosinate and 20 μM IPTG. The cultures were dispersed evenly over the plates and incubated at 28° C. for 24 hours.

[4] = 140 g ai/ha glufosinate postemergence
[5] = 280 g ai/ha glufosinate postemergence
[6] = 560 g ai/ha glufosinate postemergence
[7] = 1120 g ai/ha glufosinate postemergence

Compound: CP(=O)(O)CCC(N)C(=O)O (centres unmarked) [glufosinate]
- bacterial growth on minimal media ([1]; 250 μg/ml BASTA): ++++
- bacterial growth on minimal media ([1]; 500 μg/ml BASTA): +++
- bacterial growth on minimal media ([1]; 1000 μg/ml BASTA): +++
- bacterial growth on minimal media ([1]; 2000 μg/ml BASTA): +++
- bacterial growth on minimal media ([1]; 4000 μg/ml BASTA): +++
- % Injury Ave [2, 4]: 0.0%
- individuals with % Injury 20-40% [2, 4]: 0
- individuals with % Injury <20% [2, 4]: 10
- individuals with % Injury >40% [2, 4]: 0
- % Injury Ave [2, 5]: 0.0%
- individuals with % Injury 20-40% [2, 5]: 0
- individuals with % Injury <20% [2, 5]: 10
- individuals with % Injury >40% [2, 5]: 0
- % Injury Ave [2, 6]: 0.0%
- individuals with % Injury 20-40% [2, 6]: 0
- individuals with % Injury <20% [2, 6]: 10
- individuals with % Injury >40% [2, 6]: 0
- % Injury Ave [2, 7]: 3.0%
- individuals with % Injury 20-40% [2, 7]: 0
- individuals with % Injury <20% [2, 7]: 10
- individuals with % Injury >40% [2, 7]: 0
- bacterial growth on minimal media ([3]; 250 μg/ml BASTA): −−
- bacterial growth on minimal media ([3]; 500 μg/ml BASTA): −−
- bacterial growth on minimal media ([3]; 1000 μg/ml BASTA): −−
- bacterial growth on minimal media ([3]; 2000 μg/ml BASTA): −−
- bacterial growth on minimal media ([3]; 4000 μg/ml BASTA): −−
